Test system: Chlorella sorokiniana
Test: Malathion growth study: chlorophyll fluorescence kinetics by PAM
Format: cell-based, Chlorella sorokiniana (UTEX 2805)
Conditions: day 12; for Fv/Fm (maximum photosynthetic efficiency of PSII): control 0.672
Procedure: A 2% neutral lipid corn standard supplied by Ankom was used as an analytical standard. Carbon, hydrogen, nitrogen, and sulfur percentages in the biomass were estimated using a LECO CHNS932 elemental analyzer. • Chlorophyll fluorescence kinetics by PAM: The Pulse-Amplitude-Modulation Fluorometer (Mini-PAM, WALZ GmBH, Effeltrich, Germany) used for chlorophyll a fluorescence measurements were performed in real-time using the mini-PAM's internal halogen light as the actinic light source for fluorescence measurements of maximum photosynthetic yield, effective photosynthetic yield (PSII), electron transfer rate (ETR), photosynthetic quenching (qP) and non photochemical quenching (NPQ). The algal samples were dark adapted for one hour prior to the analysis. A small quantity (2.5 mL) of dark adopted sample in a 10 mm path length cuvette was placed in a dark chamber. The PAM fluorometer was connected to the sample via a fiber optic bundle. After stabilization of the auto fluorescence, the probing light beam was turned on and the baseline fluorescence (Fo) was recorded. A single saturating flash (1 s, 8,000 μmol m^−2 s^−1) was then applied to reach maximal fluorescence (Fm). The maximum photosynthetic efficiency of PSII was estimated as in the following equation for the dark adopted culture:
The induction kinetics were initiated by turning on the actinic light source (100 μmol m^−2 s^−1). During the induction curve under actinic light (AL) exposure, saturating light pulses (1 s; 8,000 μmol m^−2 s^−1) were given every 20 seconds to determine the effective quantum yield (Φ PSII), electron transfer rates (ETR), photochemical (qP) and non-photochemical (NPQ) quenching. The qP value was determined by the PAM data analysis software, which uses Fo as opposed to Fo′ in the equation providing a estimate of qP rather than an absolute measurement using far-red light exposure. These tests were done in duplicates.
• Test strain: Chlorella sorokiniana (UTEX 2805) was obtained from UTEX Culture Collections and maintained in BG11 medium (Stanier et al., (1971) Bacteria Rev. 35: 171-205, incorporated herein in its entirety). The pH of culture medium was adjusted to 7.5±0.2 before inoculation and the alga was maintained in a temperature controlled growth chamber at 25±1° C. and 100±10 μmol m^−2 s^−1 light intensity with 12/12 h L/D cycle provided by cool white fluorescent (6500 K) T-8 bulbs. • Pesticide: A twelve day time-scale growth study was conducted to evaluate the effect of pesticide toxicity on algal growth and metabolism. The pesticide malathion (Spectracide, 50% v/v) was used and added to fresh BG11 medium to obtain final concentrations of 70, 140, 280 and 560 mg of malathion L^−1 for the treatments. […] After sterilization, C. sorokiniana was added as inoculum to obtain an initial biomass concentration of 0.075 g L^−1 in all the treatments in triplicates. The cultures were incubated in the growth chamber as explained above. For each sampling period, three randomly chosen flasks of each treatment were removed and then refrigerated at 4° C. until further analysis.

CCOC(=O)CC(SP(=S)(OC)OC)C(=O)OCC (stereo not shown) [malathion, 2-(dimethoxyphosphinothioylthio)butanedioic acid diethyl ester]
effective photosynthetic yield, higher over the control (70 mg malathion L^−1): about 1.2 times | electron transfer rate, higher over the control (70 mg malathion L^−1): about 1.2 times | non-photochemical quenching (NPQ) versus control, in words (70 mg malathion L^−1): comparable with the control | photochemical quenching, higher over the control (70 mg malathion L^−1): about 1.2 times | Fv/Fm (maximum photosynthetic efficiency of PSII) (70 mg malathion L^−1): 0.671 | effective photosynthetic yield, higher over the control (140 mg malathion L^−1): about 1.2 times | electron transfer rate, higher over the control (140 mg malathion L^−1): about 1.2 times | non-photochemical quenching (NPQ), less than the control (140 mg malathion L^−1): 18% | photochemical quenching, higher over the control (140 mg malathion L^−1): about 1.2 times | Fv/Fm (maximum photosynthetic efficiency of PSII) (140 mg malathion L^−1): 0.641

Reference: US20110091945A1, “METHODS OF INCREASING BIOMASS PRODUCTIVITY, LIPID INDUCTION, AND CONTROLLING METABOLITES IN ALGAE FOR PRODUCTION OF BIOFUELS USING BIOCHEMICAL STIMULANTS” (priority 2009, published 2011)
